Source: patent US20060204449A1, “Nasal pharmaceutical composition of piribedil” (priority 2003, published 2006)

Key:
[1] = Kinetics, tolerance and bioavailability study in healthy volunteers (nasal administration); format: in vivo, humans; settings: human, plasma, inhaled or intranasal, formulation of Example 1, deduced from the kinetics results, read-out: bioavailability of piribedil administered by the nasal route
Description: Kinetics, Tolerance and Bioavailability Study in Healthy Volunteers
A study was carried out in 24 healthy volunteers in order to assess the local tolerance of the pharmaceutical composition according to the invention and also the kinetics of the formulation.
This study was carried out using the formulation described in Example 1, administered with the aid of a metering pump which delivers 100 μl of solution on each spray. The doses of piribedil tested are as follows: 0.1 mg, 0.25 mg, 0.5 mg, 1 mg and 2 mg, administered using two sprays each of 100 μl.

[2] = humans; cited from earlier work

c1cnc(N2CCN(Cc3ccc4c(c3)OCO4)CC2)nc1 [piribedil, Piribedil]
bioavailability [1]: 50 to 70%
bioavailability by the oral route in relation to the parenteral route [2]: low
